Assay results: patent US20200231638A1, “STABILIZED ANTI-MICROBIAL PEPTIDES” (priority 2015, published 2020)
Bridge positions count the residues as written; N and C are the ends. Square brackets hold non-standard residues; d marks the D form. Peptide text beside a SMILES is read from it. S5 = C=CCCC[C@](C)(N)C(=O)O; Nle = CCCC[C@H](N)C(=O)O

Key:
E. coli = type: cell-based, Escherichia coli
How it was run: (§1)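 Broth microdilution in anion-exchange-refined Mueller-Hinton broth; serially diluted peptide mixed with bacteria at 5×10^5 CFU/ml final inoculum. Incubated 20-24 hours at 37° C. MIC taken as lowest peptide concentration with no visible growth.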

B. cereus = type: cell-based, Bacillus cereus
How it was run: as §1

S. aureus = type: cell-based, Staphylococcus aureus
How it was run: as §1

P. aeruginosa = type: cell-based, Pseudomonas aeruginosa
How it was run: as §1

human red blood cells = type: cell-based; conditions: red cells of human, 1 h, 25
How it was run: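 Washed human RBCs as 1% (v/v) suspension in phosphate-buffered saline incubated 1 h at 37° C with serially diluted peptides. Hemoglobin release in supernatant measured spectrophotometrically (570 nm), % hemolysis relative to untreated and 1% Triton-X100 controls; MHC defined as concentration giving less than 1% release.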

| Structure (SMILES) | MIC E. coli (E. coli) | MIC B. cereus (B. cereus) | MIC S. aureus (S. aureus) | MIC P. aeruginosa (P. aeruginosa) | % Hemolysis at 25 μg/ml (human red blood cells) |
| --- | --- | --- | --- | --- | --- |
| CCCC[C@H](NC(=O)[C@]1(C)CCCC=CCCC[C@](C)(NC(=O)[C@H](C)NC(=O)[C@H](CCCCN)NC(=O)CNC(=O)[C@H](Cc2ccccc2)NC(=O)[C@H](CCCCN)NC(=O)[C@H](CCCCN)NC(=O)[C@H](C)NC(=O)[C@H](CO)NC(=O)[C@H](CCC(=O)O)NC(=O)[C@H](CC(C)C)NC(=O)[C@H](Cc2ccccc2)NC(=O)[C@H](CCCCN)NC(=O)CNC(=O)[C@@H](NC(=O)CN)[C@@H](C)CC)C(=O)N[C@@H](C(C)C)C(=O)NCC(=O)N[C@@H](CCC(=O)O)C(=O)N1)C(=O)N[C@@H](CC(N)=O)C(=O)N[C@@H](CO)C(N)=O [Mag(i + 4)15(H7E), GIGKFLESAKKFGKAXVGEXBNS] (H-GIGKFLESAKKFGKA[S5]VGE[S5][Nle]NS-NH2; staple 16-20) | 3.1 µg/mL | 6.2 µg/mL | 25 µg/mL | 12.5 µg/mL | 2.9% |
| CCCC[C@H](NC(=O)[C@]1(C)CCCC=CCCC[C@](C)(NC(=O)[C@H](C)NC(=O)[C@H](CCCCN)NC(=O)CNC(=O)[C@H](Cc2ccccc2)NC(=O)[C@H](CCCCN)NC(=O)[C@H](CCCCN)NC(=O)[C@H](C)NC(=O)[C@H](CO)NC(=O)[C@H](CCCCN)NC(=O)[C@H](CC(C)C)NC(=O)[C@H](Cc2ccccc2)NC(=O)[C@H](CCCCN)NC(=O)CNC(=O)[C@@H](NC(=O)CN)[C@@H](C)CC)C(=O)N[C@@H](C(C)C)C(=O)NCC(=O)N[C@@H](CCC(=O)O)C(=O)N1)C(=O)N[C@@H](CC(N)=O)C(=O)N[C@@H](CO)C(N)=O [Mag(i + 4)15(H7K), GIGKFLKSAKKFGKAXVGEXBNS] (H-GIGKFLKSAKKFGKA[S5]VGE[S5][Nle]NS-NH2; staple 16-20; N-terminus and C-terminus assumed) | 1.6 µg/mL | 3.1 µg/mL | 6.2 µg/mL | 3.1 µg/mL | 3.1% |
| CCCC[C@H](NC(=O)[C@]1(C)CCCC=CCCC[C@](C)(NC(=O)[C@H](C)NC(=O)[C@H](CCCCN)NC(=O)CNC(=O)[C@H](Cc2ccccc2)NC(=O)[C@H](CCCCN)NC(=O)[C@H](CCCCN)NC(=O)[C@H](C)NC(=O)[C@H](CO)NC(=O)[C@H](Cc2c[nH]cn2)NC(=O)[C@H](CC(C)C)NC(=O)[C@H](Cc2ccccc2)NC(=O)[C@H](CCCCN)NC(=O)CNC(=O)[C@H](CCC(=O)O)NC(=O)CN)C(=O)N[C@@H](C(C)C)C(=O)NCC(=O)N[C@@H](CCC(=O)O)C(=O)N1)C(=O)N[C@@H](CC(N)=O)C(=O)N[C@@H](CO)C(N)=O [Mag(i + 4)15(I2E), GEGKFLHSAKKFGKAXVGEXBNS] (H-GEGKFLHSAKKFGKA[S5]VGE[S5][Nle]NS-NH2; staple 16-20) | 12.5 µg/mL | >50 µg/mL | >50 µg/mL | >50 µg/mL | 3.6% |
| CCCC[C@H](NC(=O)[C@]1(C)CCCC=CCCC[C@](C)(NC(=O)[C@H](C)NC(=O)[C@H](CCCCN)NC(=O)CNC(=O)[C@H](Cc2ccccc2)NC(=O)[C@H](CCCCN)NC(=O)[C@H](CCCCN)NC(=O)[C@H](C)NC(=O)[C@H](CO)NC(=O)[C@H](Cc2c[nH]cn2)NC(=O)[C@H](CC(C)C)NC(=O)[C@H](Cc2ccccc2)NC(=O)[C@H](CCCCN)NC(=O)CNC(=O)[C@H](CCCCN)NC(=O)CN)C(=O)N[C@@H](C(C)C)C(=O)NCC(=O)N[C@@H](CCC(=O)O)C(=O)N1)C(=O)N[C@@H](CC(N)=O)C(=O)N[C@@H](CO)C(N)=O [Mag(i + 4)15(I2K), GKGKFLHSAKKFGKAXVGEXBNS] (H-GKGKFLHSAKKFGKA[S5]VGE[S5][Nle]NS-NH2; staple 16-20) | 1.6 µg/mL | 12.5 µg/mL | 23 µg/mL | 3.1 µg/mL | 2.3% |
| CCCC[C@H](NC(=O)[C@]1(C)CCCC=CCCC[C@](C)(NC(=O)[C@H](C)NC(=O)[C@H](CCCCN)NC(=O)CNC(=O)[C@H](Cc2ccccc2)NC(=O)[C@H](CCCCN)NC(=O)[C@H](CCCCN)NC(=O)[C@H](C)NC(=O)[C@H](CO)NC(=O)[C@H](Cc2c[nH]cn2)NC(=O)[C@H](CC(C)C)NC(=O)[C@H](Cc2ccccc2)NC(=O)[C@H](CCC(=O)O)NC(=O)CNC(=O)[C@@H](NC(=O)CN)[C@@H](C)CC)C(=O)N[C@@H](C(C)C)C(=O)NCC(=O)N[C@@H](CCC(=O)O)C(=O)N1)C(=O)N[C@@H](CC(N)=O)C(=O)N[C@@H](CO)C(N)=O [Mag(i + 4)15(K4E), GIGEFLHSAKKFGKAXVGEXBNS] (H-GIGEFLHSAKKFGKA[S5]VGE[S5][Nle]NS-NH2; staple 16-20) | 12.5 µg/mL | 50 µg/mL | >50 µg/mL | >50 µg/mL | 2.2% |
| CCCC[C@H](NC(=O)[C@]1(C)CCCC=CCCC[C@](C)(NC(=O)[C@H](C)NC(=O)[C@H](CCCCN)NC(=O)CNC(=O)[C@H](Cc2ccccc2)NC(=O)[C@H](CCCCN)NC(=O)[C@H](CCC(=O)O)NC(=O)[C@H](C)NC(=O)[C@H](CO)NC(=O)[C@H](Cc2c[nH]cn2)NC(=O)[C@H](CC(C)C)NC(=O)[C@H](Cc2ccccc2)NC(=O)[C@H](CCCCN)NC(=O)CNC(=O)[C@@H](NC(=O)CN)[C@@H](C)CC)C(=O)N[C@@H](C(C)C)C(=O)NCC(=O)N[C@@H](CCC(=O)O)C(=O)N1)C(=O)N[C@@H](CC(N)=O)C(=O)N[C@@H](CO)C(N)=O [Mag(i + 4)15(K10E), GIGKFLHSAEKFGKAXVGEXBNS] (H-GIGKFLHSAEKFGKA[S5]VGE[S5][Nle]NS-NH2; staple 16-20) | 6.2 µg/mL | >50 µg/mL | >50 µg/mL | >50 µg/mL | 2.4% |
| CCCC[C@H](NC(=O)[C@]1(C)CCCC=CCCC[C@](C)(NC(=O)[C@H](C)NC(=O)[C@H](CCCCN)NC(=O)CNC(=O)[C@H](Cc2ccccc2)NC(=O)[C@H](CCC(=O)O)NC(=O)[C@H](CCCCN)NC(=O)[C@H](C)NC(=O)[C@H](CO)NC(=O)[C@H](Cc2c[nH]cn2)NC(=O)[C@H](CC(C)C)NC(=O)[C@H](Cc2ccccc2)NC(=O)[C@H](CCCCN)NC(=O)CNC(=O)[C@@H](NC(=O)CN)[C@@H](C)CC)C(=O)N[C@@H](C(C)C)C(=O)NCC(=O)N[C@@H](CCC(=O)O)C(=O)N1)C(=O)N[C@@H](CC(N)=O)C(=O)N[C@@H](CO)C(N)=O [Mag(i + 4)15(K11E), GIGKFLHSAKEFGKAXVGEXBNS] (H-GIGKFLHSAKEFGKA[S5]VGE[S5][Nle]NS-NH2; staple 16-20) | 6.2 µg/mL | 12.5 µg/mL | 50 µg/mL | >50 µg/mL | 2.9% |
| CCCC[C@H](NC(=O)[C@]1(C)CCCC=CCCC[C@](C)(NC(=O)[C@H](C)NC(=O)[C@H](CCCCN)NC(=O)CNC(=O)[C@H](Cc2ccccc2)NC(=O)[C@H](CCCCN)NC(=O)[C@H](CCCCN)NC(=O)[C@H](C)NC(=O)[C@H](CO)NC(=O)[C@H](Cc2c[nH]cn2)NC(=O)[C@H](CCC(=O)O)NC(=O)[C@H](Cc2ccccc2)NC(=O)[C@H](CCCCN)NC(=O)CNC(=O)[C@@H](NC(=O)CN)[C@@H](C)CC)C(=O)N[C@@H](C(C)C)C(=O)NCC(=O)N[C@@H](CCC(=O)O)C(=O)N1)C(=O)N[C@@H](CC(N)=O)C(=O)N[C@@H](CO)C(N)=O [Mag(i + 4)15(L6E), GIGKFEHSAKKFGKAXVGEXBNS] (H-GIGKFEHSAKKFGKA[S5]VGE[S5][Nle]NS-NH2; staple 16-20) | 50 µg/mL | >50 µg/mL | >50 µg/mL | >50 µg/mL | 1.1% |
| CCCC[C@H](NC(=O)[C@]1(C)CCCC=CCCC[C@](C)(NC(=O)[C@H](C)NC(=O)[C@H](CCCCN)NC(=O)CNC(=O)[C@H](Cc2ccccc2)NC(=O)[C@H](CCCCN)NC(=O)[C@H](CCCCN)NC(=O)[C@H](C)NC(=O)[C@H](CO)NC(=O)[C@H](Cc2c[nH]cn2)NC(=O)[C@H](CCCCN)NC(=O)[C@H](Cc2ccccc2)NC(=O)[C@H](CCCCN)NC(=O)CNC(=O)[C@@H](NC(=O)CN)[C@@H](C)CC)C(=O)N[C@@H](C(C)C)C(=O)NCC(=O)N[C@@H](CCC(=O)O)C(=O)N1)C(=O)N[C@@H](CC(N)=O)C(=O)N[C@@H](CO)C(N)=O [Mag(i + 4)15(L6K), GIGKFKHSAKKFGKAXVGEXBNS] (H-GIGKFKHSAKKFGKA[S5]VGE[S5][Nle]NS-NH2; staple 16-20) | 3.1 µg/mL | >50 µg/mL | >50 µg/mL | 12.5 µg/mL | 1.9% |
